According to patent US4459241A, “Compounds containing quaternary ammonium and methylenephosphonic acid groups” (The Dow Chemical Company, priority 1983, dated 1984):

Assay: scale inhibition test with respect to calcium carbonate (soluble calcium retained, 24 h at 80° C.)
Format: physicochemical
Settings: 10 ppm based on active acid, 0.02M CaCl2 + 0.04M sodium bicarbonate/0.96M sodium chloride, 24-hour period, blank 12%
Method: To these solutions is added the candidate inhibitor in various concentrations. Fifty-ml samples of a 0.04M sodium bicarbonate/0.96M sodium chloride solution are then added with stirring. A total hardness determination is made on the mixture by adding excess standard EDTA to a sample and back titrating with standard Mg^++ solution in the presence of Eriochrome Black T indicator. The samples are placed in an 80° C. oven and 10-ml samples taken periodically from each bottle, filtered through a millipore filter, and the total hardness of the filtrates determined by titration. A blank with no inhibitor is run in an identical manner. The relative inhibition effects are shown by determining the amount of hardness (as soluble calcium) before and after heating for a 24-hour period. The amount of soluble calcium as a percent of that originally present is indicated as % inhibition.
All products and comparative runs were made using a concentration of 10 ppm based on active acid.

C[N+](C)(C)CC(O)CN(CCN(CP(=O)(O)O)CP(=O)(O)O)CP(=O)(O)O (stereo not shown) [Product Ex. 1]
% Inhibition (amount of soluble calcium as a percent of that originally present): 41.8%
